Test results reported in PubChem BioAssay AID248 (DTP/NCI, 2004).
“And” between values parts separate entries of the source, which are not always exact repeats. Identical values can stand only once. Inconclusive results and toxic doses are left out. No stated cut-off is given here; in the data, active means T/C of 150% or more; inactive means T/C below 125%.

System: L1210 leukemia ip in BDF1 mice, survival T/C
Test: NCI In Vivo Anticancer Drug Screen. Data for tumor model L1210 Leukemia (intraperitoneal) in B6D2F1 (BDF1) mice
Details: endpoint: mean survival time, higher = longer survival
Outline: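 Each compound was tested against a transplantable tumor grown in mice. The endpoint was survival, with treated animals benchmarked against vehicle controls as a simple ratio.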

[1] = dose: 25.0 mg/kg/injection, schedule: Q01DX009 (ip), vehicle: Klucel (hydroxypropylcellulose) (HPC)
[2] = dose: 50.0 mg/kg/injection, schedule: Q01DX009 (ip), vehicle: Klucel (hydroxypropylcellulose) (HPC)
[3] = dose: 100.0 mg/kg/injection, schedule: Q01DX001 (ip), vehicle: Klucel (hydroxypropylcellulose) (HPC)
[4] = dose: 200.0 mg/kg/injection, schedule: Q01DX001 (ip), vehicle: Klucel (hydroxypropylcellulose) (HPC)
[5] = dose: 100.0 mg/kg/injection, schedule: Q01DX001 (ip), vehicle: saline
[6] = dose: 200.0 mg/kg/injection, schedule: Q04DX003 (ip), vehicle: saline with Tween-80
[7] = dose: 400.0 mg/kg/injection, schedule: Q04DX003 (ip), vehicle: saline with Tween-80
[8] = dose: 100.0 mg/kg/injection, schedule: Q04DX003 (ip), vehicle: saline with Tween-80
[9] = dose: 200.0 mg/kg/injection, schedule: Q01DX001 (ip), vehicle: saline

Measured: T/C

CC(F)(F)C(F)(F)C(=O)CC(=O)C(F)(F)F.CC(F)(F)C(F)(F)C(=O)CC(=O)C(F)(F)F.[Cu]
inactive: dose: 6.25 mg/kg/injection, schedule: Q01DX009 (ip), vehicle: saline with Tween-80 88 % of control | dose: 6.25 mg/kg/injection, schedule: Q04DX003 (ip), vehicle: saline with Tween-80 91 % of control | dose: 12.5 mg/kg/injection, schedule: Q01DX009 (ip), vehicle: saline with Tween-80 101 % of control | dose: 12.5 mg/kg/injection, schedule: Q04DX003 (ip), vehicle: saline with Tween-80 95 % of control | dose: 25.0 mg/kg/injection, schedule: Q01DX009 (ip), vehicle: saline with Tween-80 90 % of control | dose: 25.0 mg/kg/injection, schedule: Q04DX003 (ip), vehicle: saline with Tween-80 95 % of control

CCCCCCCCCCCCCCCCC(C(=O)O)C(O)(CC(=O)O)C(=O)O (stereo unspecified)
inactive: dose: 19.0 mg/kg/injection, schedule: Q01DX Z (ip), vehicle: carboxymethylcellulose (CMC) 92 % of control | dose: 37.5 mg/kg/injection, schedule: Q01DX Z (ip), vehicle: carboxymethylcellulose (CMC) 92 % of control | dose: 75.0 mg/kg/injection, schedule: Q01DX Z (ip), vehicle: carboxymethylcellulose (CMC) 86 % of control and 87 % of control | dose: 150.0 mg/kg/injection, schedule: Q01DX Z (ip), vehicle: carboxymethylcellulose (CMC) 88 % of control

Cc1cc(N(CCOS(C)(=O)=O)CCOS(C)(=O)=O)ccc1C=Nc1ccc(-c2csc(-c3ccc(Cl)cc3)n2)cc1
inactive: [1] 112 % of control | [2] 86 % of control

C1=C(c2ccccc2)N=C(c2ccccc2)C2C(c3ccccc3)N2C1c1ccccc1 (stereo unspecified)
inactive: [3] 87 % of control | [4] 91 % of control

CCC1c2ccc3cc(OC)ccc3c2C(=O)CC1C(=O)O (stereo unspecified)
inactive: dose: 100.0 mg/kg/injection, schedule: Q01DX009 (sc), vehicle: steriod suspending solution 102 % of control | dose: 100.0 mg/kg/injection, schedule: Q04DX003 (sc), vehicle: steriod suspending solution 104 % of control | dose: 200.0 mg/kg/injection, schedule: Q01DX009 (sc), vehicle: steriod suspending solution 96 % of control | dose: 200.0 mg/kg/injection, schedule: Q04DX003 (sc), vehicle: steriod suspending solution 98 % of control | dose: 400.0 mg/kg/injection, schedule: Q01DX009 (sc), vehicle: steriod suspending solution 106 % of control | dose: 400.0 mg/kg/injection, schedule: Q04DX003 (sc), vehicle: steriod suspending solution 105 % of control

COc1c2c(c(OC(C)=O)c3c1C(=O)c1ccccc1C3=O)CCCC2
inactive: dose: 6.25 mg/kg/injection, schedule: Q01DX001 (ip), vehicle: saline 100 % of control | dose: 12.5 mg/kg/injection, schedule: Q01DX001 (ip), vehicle: saline 96 % of control | dose: 25.0 mg/kg/injection, schedule: Q01DX001 (ip), vehicle: saline 101 % of control | dose: 50.0 mg/kg/injection, schedule: Q01DX001 (ip), vehicle: saline 95 % of control | [5] 93 % of control

CC(Oc1ccccc1)C(=O)Nc1ccc(F)cc1 (stereo unspecified)
inactive: dose: 100.0 mg/kg/injection, schedule: Q04DX002 (ip), vehicle: Klucel (hydroxypropylcellulose) (HPC) 94 % of control | dose: 200.0 mg/kg/injection, schedule: Q04DX002 (ip), vehicle: Klucel (hydroxypropylcellulose) (HPC) 97 % of control | dose: 400.0 mg/kg/injection, schedule: Q04DX002 (ip), vehicle: Klucel (hydroxypropylcellulose) (HPC) 97 % of control

COc1ccc(/C=N\NC(=O)N/N=C/c2ccc(OC)c(OC)c2)cc1OC
inactive: dose: 50.0 mg/kg/injection, schedule: Q01DX001 (ip), vehicle: Klucel (hydroxypropylcellulose) (HPC) 90 % of control | [3] 95 % of control

CC(C)C1=CC2=CCC3C(C)(C(N)=O)CCCC3(C)C2CC1CC#N (stereo unspecified)
inactive: dose: 100.0 mg/kg/injection, schedule: Q01DX009 (ip), vehicle: saline with Tween-80 93 % of control | dose: 200.0 mg/kg/injection, schedule: Q01DX009 (ip), vehicle: saline with Tween-80 93 % of control | [6] 91 % of control | dose: 400.0 mg/kg/injection, schedule: Q01DX009 (ip), vehicle: saline with Tween-80 94 % of control | [7] 93 % of control

COc1ccc2c(c1)c1c(C)c3cnccc3c(C)c1n2CC1CO1 (stereo unspecified)
inactive: dose: 4.7 mg/kg/injection, schedule: Q01DX009 (ip), vehicle: saline with Tween-80 100 % of control | dose: 9.4 mg/kg/injection, schedule: Q01DX009 (ip), vehicle: saline with Tween-80 102 % of control | dose: 18.75 mg/kg/injection, schedule: Q04DX003 (ip), vehicle: saline with Tween-80 116 % of control | dose: 37.5 mg/kg/injection, schedule: Q04DX003 (ip), vehicle: saline 120 % of control | dose: 75.0 mg/kg/injection, schedule: Q04DX003 (ip), vehicle: saline 91 % of control

Cc1nnnn1-c1ccc([N+](=O)[O-])cc1
inactive: [8] 101 % of control | [6] 101 % of control | [7] 93 % of control

CN1/C(=C/C=N/NC(N)=S)C(C)(C)c2ccccc21
inactive: dose: 100.0 mg/kg/injection, schedule: Q01DX001 (ip), vehicle: carboxymethylcellulose (CMC) 102 % of control | dose: 200.0 mg/kg/injection, schedule: Q01DX001 (ip), vehicle: carboxymethylcellulose (CMC) 98 % of control | dose: 400.0 mg/kg/injection, schedule: Q01DX001 (ip), vehicle: carboxymethylcellulose (CMC) 98 % of control

CC1CCCCN1Cc1ccccc1COC(=O)c1cccc(Br)c1 (stereo unspecified)
inactive: [3] 104 % of control | [4] 96 % of control

CCOC(=O)c1cc(C=O)oc1C
inactive: [1] 91 % of control | [2] 97 % of control | dose: 100.0 mg/kg/injection, schedule: Q01DX009 (ip), vehicle: Klucel (hydroxypropylcellulose) (HPC) 103 % of control | dose: 100.0 mg/kg/injection, schedule: Q04DX003 (ip), vehicle: Klucel (hydroxypropylcellulose) (HPC) 95 % of control | dose: 200.0 mg/kg/injection, schedule: Q04DX003 (ip), vehicle: Klucel (hydroxypropylcellulose) (HPC) 93 % of control | dose: 400.0 mg/kg/injection, schedule: Q04DX003 (ip), vehicle: Klucel (hydroxypropylcellulose) (HPC) 90 % of control

O=C(O)c1cc(=O)c(O)c2c(O)c(O)c(O)cc2c1
inactive: [5] 103 % of control | [9] 91 % of control

CCCCCCCCCCCCNC1=C(Cl)C(=O)C(=O)c2cccnc21
inactive: [8] 98 % of control | [6] 101 % of control | [7] 95 % of control

O=C(Nc1ccc(NC2=NCCN2)cc1)c1cccc(C(=O)Nc2ccc(NC3=NCCN3)cc2)c1
active: dose: 30.0 mg/kg/injection, schedule: Q01DX Z (ip), vehicle: methylcellulose (MC) 161 % of control
inactive: dose: 3.75 mg/kg/injection, schedule: Q01DX Z (ip), vehicle: methylcellulose (MC) 100 % of control | dose: 7.5 mg/kg/injection, schedule: Q01DX Z (ip), vehicle: methylcellulose (MC) 104 % of control | dose: 15.0 mg/kg/injection, schedule: Q01DX Z (ip), vehicle: methylcellulose (MC) 116 % of control

CCC1([N+](=O)[O-])COP(=O)(OC(=O)c2ccccc2)OC1 (stereo unspecified)
inactive: [5] 100 % of control | [9] 108 % of control | dose: 400.0 mg/kg/injection, schedule: Q01DX001 (ip), vehicle: saline 97 % of control
